The results in this text go back to patent US9987276B2 (Celgene CAR LLC, priority 2008, dated 2018).

Entries after “also recorded” stand apart in the source; their conditions may differ. Where only a bound is given, the exact number is not on record here.

In test [1] the target is T1, BTK (Homo sapiens (Human), UniProt Q06187). The test can be described thus: Omnia assay for potency assessment against BTK. The format is biochemical. The following applies: [BTK]=5 nM, Omnia assay; read-out: BTK Inhibition (IC50). The procedure: The modified BTK-optimized reagent conditions for the above protocol are:
[BTK]=5 nM, [ATP]=[…], [Y5-Sox]=[…] (ATP KMapp˜[…]).

The target of the next test is ITK (Homo sapiens (Human), UniProt Q08881). The test can be described thus: Omnia assay for potency assessment against active forms of ITK kinase. It is filed as biochemical. The following applies: [ITK]=10 nM, [ATP]=25, [Y6-Sox]=10 μM; read-out: ITK Inhibition. The procedure:
[ITK]=10 nM, [ATP]=25 [Y6-Sox]=10 μM (ATP KMapp=33 μM).

Test [2] addresses T1, BTK. The test can be described thus: Washout experiment with Ramos cells. The format is cell-based. The settings on record: 100 nM compound for 1 hour, then washout. An outline of the steps: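 Serum-starved Ramos cells exposed to 100 nM compound for 1 h, then washed and kept in compound-free medium, rewashed every 2 h. At timepoints, BCR stimulated with anti-human IgM for 10 min on ice; BTK activity read as PLCγ2 phosphorylation by western blot.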

A further test has as its target EGFR-T790M/L858R (Homo sapiens (Human), UniProt P00533, L858R/T790M). The test can be described thus: Omnia assay for potency assessment against EGFR (T790M/L858R). The settings on record: read-out: EGFR (T790M/L858R); EGFR mutant T790M/L858R.
Another test has as its target EGFR-WT (Homo sapiens (Human), UniProt P00533). The test can be described thus: Omnia assay for potency assessment against EGFR (WT). The settings on record: read-out: EGFR (wild type inhibition); EGFR wild type.
Another test concerns the target TEC kinase (Homo sapiens (Human), UniProt P42680). The test can be described thus: Mass spectrometry for TEC kinase (tryptic digest). The format is binding. The settings on record: 3 hrs at 10× excess. The procedure: TEC kinase (45 pmols; Invitrogen) was incubated with (I-2) (450 pmols) for 3 hrs at 10× excess prior to tryptic digestion. Iodoacetamide was used as the alkylating agent after compound incubation. […] For tryptic digests a 5 ul aliquot (7.5 pmols) was diluted with 15 ul of 0.1% TFA prior to micro C18 Zip Tipping directly onto the MALDI target using alpha cyano-4-hydroxy cinnamic acid as the matrix (5 mg/ml in 0.1% TFA:Acetonitrile 50:50).
As depicted in FIG. 6, the expected peptide ([…]) to be modified was immediately evident after reaction with I-2 (MI mass of 359.17 Da) at MH+ of 1294.72. The peptide was also quite evident in the control sample as modified by Iodacetamide at MH+ of 992.56. […] There was no evidence of other modified peptides.
The fragmentation spectra of the 360.17 peak did show diagnostic fragments that were apparent in the PSD spectra of the modified peptide at 1294.72 (See FIG. 6).
To further verify the presence of the modified peptides, both the iodoacetamide labeled (992.56) and I-2 labeled (1294.72) were subjected to PSD (MS/MS) analysis. After a database search of the NCBI nr Homo sapien database using Mascot MS/MS Ion Search program the top match was the expected peptide in both cases.
For tryptic digests the instrument was set in Reflectron mode with a pulsed extraction setting of 2200. Calibration was done using the Laser Biolabs Pep Mix standard ([…], 1296.69, 1672.92, 2093.09, 2465.20). For CID/PSD analysis the peptide was selected using cursors to set ion gate timing and fragmentation occurred at a laser power about 20% higher and He was used as the collision gas for CID. Calibration for fragments was done using the P14R fragmentation calibration for the Curved field Reflectron.
TEC kinase (45 pmols; Invitrogen) was incubated with (I-4) (450 pmols) for 3 hrs at 10× excess prior to tryptic digestion. Iodoacetamide was used as the alkylating agent after compound incubation. […]

Sequence of TEC kinase (P42680 whole entry): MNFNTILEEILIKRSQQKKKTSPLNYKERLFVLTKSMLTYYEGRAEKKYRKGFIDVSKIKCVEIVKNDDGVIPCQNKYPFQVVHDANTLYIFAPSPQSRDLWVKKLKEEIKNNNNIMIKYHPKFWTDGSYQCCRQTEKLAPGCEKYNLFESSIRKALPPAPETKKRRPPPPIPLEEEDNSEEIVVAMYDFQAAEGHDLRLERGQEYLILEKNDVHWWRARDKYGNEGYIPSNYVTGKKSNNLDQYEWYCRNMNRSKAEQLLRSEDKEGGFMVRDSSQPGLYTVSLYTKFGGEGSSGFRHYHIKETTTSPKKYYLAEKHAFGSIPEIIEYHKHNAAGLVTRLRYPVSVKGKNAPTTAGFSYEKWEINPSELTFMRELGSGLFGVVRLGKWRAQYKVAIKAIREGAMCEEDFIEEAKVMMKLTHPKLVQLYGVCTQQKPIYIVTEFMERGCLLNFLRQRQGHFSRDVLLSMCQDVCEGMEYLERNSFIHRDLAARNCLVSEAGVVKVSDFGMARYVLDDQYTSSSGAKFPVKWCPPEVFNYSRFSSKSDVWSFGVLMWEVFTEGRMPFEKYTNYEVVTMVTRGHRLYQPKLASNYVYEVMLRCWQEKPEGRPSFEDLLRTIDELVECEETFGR
T1 sequence (Q06187 whole entry): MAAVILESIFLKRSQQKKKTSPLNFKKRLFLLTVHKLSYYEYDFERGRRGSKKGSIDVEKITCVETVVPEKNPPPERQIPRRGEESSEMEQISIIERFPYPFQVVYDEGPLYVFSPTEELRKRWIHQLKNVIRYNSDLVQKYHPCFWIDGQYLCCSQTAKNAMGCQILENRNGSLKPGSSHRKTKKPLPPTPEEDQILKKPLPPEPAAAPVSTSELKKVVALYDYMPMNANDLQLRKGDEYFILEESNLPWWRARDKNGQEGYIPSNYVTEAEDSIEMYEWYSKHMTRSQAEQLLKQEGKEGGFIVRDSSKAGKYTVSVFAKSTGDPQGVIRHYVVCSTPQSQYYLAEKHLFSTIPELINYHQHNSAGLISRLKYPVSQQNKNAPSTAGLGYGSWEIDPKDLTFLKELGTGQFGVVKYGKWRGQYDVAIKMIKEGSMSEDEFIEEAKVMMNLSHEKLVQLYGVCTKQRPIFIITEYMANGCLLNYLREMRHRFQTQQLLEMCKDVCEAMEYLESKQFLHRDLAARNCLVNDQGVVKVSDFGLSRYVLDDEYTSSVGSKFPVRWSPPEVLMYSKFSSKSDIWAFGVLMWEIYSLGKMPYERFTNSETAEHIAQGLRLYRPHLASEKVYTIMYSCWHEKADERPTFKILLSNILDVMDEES
Sequence of ITK (Q08881 whole entry): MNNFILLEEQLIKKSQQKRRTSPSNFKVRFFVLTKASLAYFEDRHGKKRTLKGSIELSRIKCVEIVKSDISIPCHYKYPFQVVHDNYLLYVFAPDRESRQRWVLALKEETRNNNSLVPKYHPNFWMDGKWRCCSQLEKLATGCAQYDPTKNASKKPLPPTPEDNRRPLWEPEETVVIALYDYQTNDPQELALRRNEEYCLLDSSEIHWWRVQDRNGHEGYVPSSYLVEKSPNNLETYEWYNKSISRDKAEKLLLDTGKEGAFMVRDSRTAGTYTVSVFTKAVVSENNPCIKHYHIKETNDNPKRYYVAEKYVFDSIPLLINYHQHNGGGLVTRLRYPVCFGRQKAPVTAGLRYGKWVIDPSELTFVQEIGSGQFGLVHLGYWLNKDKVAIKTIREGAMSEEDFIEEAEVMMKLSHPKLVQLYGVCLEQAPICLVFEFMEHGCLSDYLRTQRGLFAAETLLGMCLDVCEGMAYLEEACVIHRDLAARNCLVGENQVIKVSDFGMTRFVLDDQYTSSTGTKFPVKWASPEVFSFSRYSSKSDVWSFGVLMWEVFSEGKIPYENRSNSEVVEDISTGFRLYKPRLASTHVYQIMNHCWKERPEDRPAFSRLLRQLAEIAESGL
Sequence of EGFR-T790M/L858R (P00533 25-1210 T790M/L858R): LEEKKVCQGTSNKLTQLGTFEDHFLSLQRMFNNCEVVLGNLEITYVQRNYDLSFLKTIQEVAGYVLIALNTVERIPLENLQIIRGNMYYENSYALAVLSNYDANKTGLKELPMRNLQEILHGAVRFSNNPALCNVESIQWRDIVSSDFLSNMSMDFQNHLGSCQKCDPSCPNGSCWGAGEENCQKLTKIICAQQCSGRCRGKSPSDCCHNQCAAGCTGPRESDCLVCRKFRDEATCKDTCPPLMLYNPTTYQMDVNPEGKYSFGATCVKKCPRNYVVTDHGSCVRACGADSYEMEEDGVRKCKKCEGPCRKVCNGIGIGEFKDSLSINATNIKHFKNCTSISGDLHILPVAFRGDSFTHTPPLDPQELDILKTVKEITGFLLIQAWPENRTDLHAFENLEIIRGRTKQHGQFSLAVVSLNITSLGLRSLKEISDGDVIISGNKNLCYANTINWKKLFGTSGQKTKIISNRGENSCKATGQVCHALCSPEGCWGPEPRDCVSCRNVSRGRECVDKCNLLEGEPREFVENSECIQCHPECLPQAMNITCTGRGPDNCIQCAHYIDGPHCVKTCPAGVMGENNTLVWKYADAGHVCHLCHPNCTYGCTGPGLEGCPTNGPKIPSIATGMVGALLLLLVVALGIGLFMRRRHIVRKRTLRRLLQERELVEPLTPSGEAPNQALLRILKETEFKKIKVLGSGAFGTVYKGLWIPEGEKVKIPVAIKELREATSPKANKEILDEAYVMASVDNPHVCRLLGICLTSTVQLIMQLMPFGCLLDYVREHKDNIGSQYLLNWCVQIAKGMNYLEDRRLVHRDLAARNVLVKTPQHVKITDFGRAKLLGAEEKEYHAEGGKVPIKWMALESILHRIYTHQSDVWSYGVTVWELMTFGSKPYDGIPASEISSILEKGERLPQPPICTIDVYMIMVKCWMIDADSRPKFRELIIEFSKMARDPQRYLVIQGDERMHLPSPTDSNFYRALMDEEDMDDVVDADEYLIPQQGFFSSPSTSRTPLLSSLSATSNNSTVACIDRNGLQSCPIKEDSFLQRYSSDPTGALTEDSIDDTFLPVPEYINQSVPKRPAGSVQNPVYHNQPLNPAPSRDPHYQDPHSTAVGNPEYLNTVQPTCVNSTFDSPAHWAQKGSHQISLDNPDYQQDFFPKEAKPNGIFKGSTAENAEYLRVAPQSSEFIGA
Sequence of EGFR-WT (P00533 668-1210): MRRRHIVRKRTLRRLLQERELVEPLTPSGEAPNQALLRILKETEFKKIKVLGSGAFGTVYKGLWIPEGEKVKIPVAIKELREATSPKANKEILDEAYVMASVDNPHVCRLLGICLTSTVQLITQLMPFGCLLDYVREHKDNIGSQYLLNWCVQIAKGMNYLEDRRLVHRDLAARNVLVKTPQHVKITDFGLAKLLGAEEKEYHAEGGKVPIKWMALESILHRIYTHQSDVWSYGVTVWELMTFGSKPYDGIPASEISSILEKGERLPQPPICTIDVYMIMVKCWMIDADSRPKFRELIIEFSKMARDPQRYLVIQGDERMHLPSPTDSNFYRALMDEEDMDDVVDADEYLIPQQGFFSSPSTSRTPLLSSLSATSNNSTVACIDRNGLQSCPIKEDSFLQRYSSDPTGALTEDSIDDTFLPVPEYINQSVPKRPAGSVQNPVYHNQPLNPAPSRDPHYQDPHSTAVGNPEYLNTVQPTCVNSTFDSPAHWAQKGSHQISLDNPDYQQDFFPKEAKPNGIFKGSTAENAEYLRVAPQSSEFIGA

In the case of `Cc1cccc(Nc2nc(Nc3cccc(NC(=O)/C=C/CN(C)C)c3)ncc2F)c1` [Compound I-4, (E)-4-(dimethylamino)-N-(3-(5-fluoro-4-(m-tolylamino)pyrimidin-2-ylamino)phenyl)but-2-enamide], the IC50 is below 10 nM at BTK [1], 10 to 100 nM at ITK, below 10 nM on EGFR-T790M/L858R and below 10 nM at EGFR-WT. In addition, the “BTK Inhibition Type” value at BTK [2] is listed as “irreversible”. Besides, on TEC kinase, the “covalent modification of TEC kinase (Cys449, peptide GCLLNFLR) by mass spectrometry” value was “reaction was complete; also recorded: covalent modification”.

Consider `C=CC(=O)Nc1cccc(Nc2nc(Nc3ccccc3)ncc2C)c1` [Compound I-7, N-(3-(5-methyl-2-(phenylamino)pyrimidin-4-ylamino)phenyl) acrylamide], for which the IC50 on BTK [1], on ITK, at EGFR-T790M/L858R and on EGFR-WT was below 10 nM throughout. The “BTK Inhibition Type” value on BTK [2] was “irreversible”. Also, at TEC kinase, the “covalent modification of TEC kinase (Cys449, peptide GCLLNFLR) by mass spectrometry” value was “reaction was complete; also recorded: covalent modification”.
